From patent US20260347353A1, “INDOLIZINE DERIVATIVES FOR TREATING CANCER” (Antares Therapeutics, Inc., priority 2022, published 2026)

Legend:
[1] = target: T1, p53 Y220C mutant protein (amino acid residues 94-293) (Homo sapiens, UniProt P04637, Y220C); test: Surface Plasmon Resonance (SPR) assay, p53 Y220C Kd_kinetic; details: multi-cycle kinetics, 16 or 20 °C, pH 7.5, 1:1 binding model
T1 construct: p53 Y220C mutant protein (amino acid residues 94-293)
Description: SPR experiments are performed on a Biacore 8K instrument. […] Compounds are 2-fold, 7-point serial diluted; the top concentration varies depending on the potency. Compound binding affinities are measured in the multi-cycle kinetics mode, at 30 μL/min flow rate with 60 seconds association time and 120 seconds dissociation time. The running buffer contains 50 mM Tris, pH 7.5, 100 mM NaCl, 1 mM DTT, 0.01% Brij35, 0.05% Tween-20 and 1% DMSO. The assay temperature is maintained at 16 or 20 °C and data are fit into the 1:1 binding model using the Biacore Insight Evaluation software.

p53 Y220C = p53 Y220C (Homo sapiens, UniProt P04637, Y220C); test: Luciferase Reporter Assay, p53 Y220C (NCIH1299 cells with inducible p53 Y220C and p53 response element-luciferase); type: cell-based; details: 6 hour compound treatment, read-out: Luc P53 Y220C AC50
Description: Luciferase reporter (Luc) driven by p53 response element (LTV-p53-Luc (SKU #: LTLR007); G&P Biosciences) and inducible p53 Y220C construct (Tet-One inducible expression system; Takara) were stably expressed in NCIH1299 cells by lentiviral transduction. The cells were then used for p53 reporter assay. 5,000 cells were seeded in each well of 384 plate and cultured in 0.5 ug/mL doxycycline (D3072; Sigma) containing medium for 24 hours before compound treatment. After 6 hour of compound treatment, equal volume of One-Glo reagent (E6110; Promega) was added to each well and the plate was incubated for 5 minutes with shaking at room temperature. The luciferase activity was immediately measured with PheraStar microplate reader. Luciferase activity was stimulated by 10 uM of a tool compound as positive control and AC50 was calculated.

NUGC3 cells (p53 Y220C) = test: Cell Proliferation Assay (CellTiter-Glo), NUGC3 p53 Y220C; type: cell-based; details: Homo sapiens, NUGC-3, 120 h, 5 days, read-out: CTG NUGC3 P53 Y220C IC50
Description: Inducible p53 Y220C and R273H constructs (Tet-One inducible expression system; Takara) were stably expressed in NCIH1299 cells by lentiviral transduction. NUGC3, A549, BxPC3, T3M4, HuH7, HCC2935, MFE296, NCIH1299, NCIH1299-inducible p53 Y220C, and NCIH1299-inducible p53 R273H cell lines were used for cell proliferation assay. 250-500 cells were seeded in each well of 384 plate and then compounds were dispensed into each well using Echo or Tecan. After 5 days of incubation, equal volume of CellTiter-Glo reagent (G7570; Promega) was added into each well and the plate was incubated at room temperature for 10 minutes with shaking. The luminescent signal was measured by PheraStar microplate reader and IC50 was calculated.

T1 sequence (P04637 94-293, stated change not applied): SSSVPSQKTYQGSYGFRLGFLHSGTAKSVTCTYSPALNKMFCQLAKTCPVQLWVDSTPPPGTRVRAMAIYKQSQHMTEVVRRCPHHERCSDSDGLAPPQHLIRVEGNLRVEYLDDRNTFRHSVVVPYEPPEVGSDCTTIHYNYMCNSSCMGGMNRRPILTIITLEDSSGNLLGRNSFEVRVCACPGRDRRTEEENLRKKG

SMILES	Kd [1] [nM]	AC50 (p53 Y220C) [nM]	IC50 (NUGC3 cells (p53 Y220C)) [nM]
CNC(=O)c1cnc(NCc2nc(-c3cc4c(N[C@@H]5CCN(C)C[C@@H]5F)cccn4c3SC(F)(F)F)no2)nc1 [Example 50, 2-({[3-(8-{[(3S,4R)-3-fluoro-1-methylpiperidin-4-yl]amino}-3-[(trifluoromethyl)sulfanyl]indolizin-2-yl)-1,2,4-oxadiazol-5-yl]methyl}amino)-N-methylpyrimidine-5-carboxamide]	< 10	< 750	750 to 1500
CN1CC[C@@H](Nc2cccn3c(SC(F)(F)F)c(-c4noc([C@H](CO)NC(=O)C5CC5)n4)cc23)[C@@H](F)C1 [Example 55, N-[(1S)-1-[3-(8-{[(3S,4R)-3-fluoro-1-methylpiperidin-4-yl]amino}-3-[(trifluoromethyl)sulfanyl]indolizin-2-yl)-1,2,4-oxadiazol-5-yl]-2-hydroxyethyl]cyclopropanecarboxamide]	10 to 100	≥ 3000	≥ 3000
CN1CC[C@@H](Nc2cccn3c(SC(F)(F)F)c(-c4noc(CNC(=O)c5cnn[nH]5)n4)cc23)[C@@H](F)C1 [Example 80]	< 10	1500 to 3000	1500 to 3000
CN1CC[C@@H](Nc2cccn3c(SC(F)(F)F)c(-c4noc(CNC(=O)c5nnc[nH]5)n4)cc23)[C@@H](F)C1 [Example 83]	–	–	750 to 1500
CN1CC[C@@H](Nc2cccn3c(SC(F)(F)F)c(-c4noc(CNC(=O)c5nsc(N(C)C)n5)n4)cc23)[C@@H](F)C1 [Example 93]	< 10	< 750	< 750
Cc1noc(C(=O)NCc2nc(-c3cc4c(N[C@@H]5CCN(C)C[C@@H]5F)cccn4c3SC(F)(F)F)no2)n1 [Example 98]	< 10	750 to 1500	750 to 1500
CN1CC[C@@H](Nc2cccn3c(SC(F)(F)F)c(-c4cc(CNC(=O)c5cnc(N(C)C)s5)no4)cc23)[C@@H](F)C1 [Example 92]	< 10	< 750	–

Second part, led by results:

Kd [1] [nM]	AC50 (p53 Y220C) [nM]	SMILES	IC50 (NUGC3 cells (p53 Y220C)) [nM]
< 10	< 750	Cc1ncc(C(=O)NCc2nc(-c3cc4c(N[C@@H]5CCN(C)C[C@@H]5F)cccn4c3SC(F)(F)F)no2)o1 [Example 71]	< 750
< 10	< 750	CN1CC[C@@H](Nc2cccn3c(SC(F)(F)F)c(-c4noc(CNC(=O)c5cnc[nH]5)n4)cc23)[C@@H](F)C1 [Example 73]	750 to 1500
< 10	< 750	CN1CC[C@@H](Nc2cccn3c(SC(F)(F)F)c(-c4noc(CNC(=O)c5cncs5)n4)cc23)[C@@H](F)C1 [Example 70]	< 750
< 10	< 750	CN1CC[C@@H](Nc2cccn3c(SC(F)(F)F)c(-c4noc(CNC(=O)c5ccn(C6(C)CCOCC6)c5)n4)cc23)[C@@H](F)C1 [Example 94]	< 750
< 10	< 750	CN1CC[C@@H](Nc2cccn3c(SC(F)(F)F)c(-c4noc(CNC(=O)c5ccno5)n4)cc23)[C@@H](F)C1 [Example 76]	750 to 1500
< 10	< 750	CN1CC[C@@H](Nc2cccn3c(SC(F)(F)F)c(-c4noc(CNC(=O)c5ccn(CCF)c5)n4)cc23)[C@@H](F)C1 [Example 96]	–
< 10	< 750	CN1CC[C@@H](Nc2cccn3c(SC(F)(F)F)c(-c4noc(CNC(=O)c5ccn(CC(C)(C)O)c5)n4)cc23)[C@@H](F)C1 [Example 95]	–
< 10	< 750	COCC1(n2ccc(C(=O)NCc3nc(-c4cc5c(N[C@@H]6CCN(C)C[C@@H]6F)cccn5c4SC(F)(F)F)no3)c2)CC1 [Example 97]	–
